Biological target: T1, human TAS1R2-R838K (subunit alone) (Homo sapiens, UniProt Q8TE23, R838K)
T1 construct: expressed in transfected cells; host or cells: HEK293T stably expressing Gα16gust44
T1 sequence (Q8TE23 20-839 R838K): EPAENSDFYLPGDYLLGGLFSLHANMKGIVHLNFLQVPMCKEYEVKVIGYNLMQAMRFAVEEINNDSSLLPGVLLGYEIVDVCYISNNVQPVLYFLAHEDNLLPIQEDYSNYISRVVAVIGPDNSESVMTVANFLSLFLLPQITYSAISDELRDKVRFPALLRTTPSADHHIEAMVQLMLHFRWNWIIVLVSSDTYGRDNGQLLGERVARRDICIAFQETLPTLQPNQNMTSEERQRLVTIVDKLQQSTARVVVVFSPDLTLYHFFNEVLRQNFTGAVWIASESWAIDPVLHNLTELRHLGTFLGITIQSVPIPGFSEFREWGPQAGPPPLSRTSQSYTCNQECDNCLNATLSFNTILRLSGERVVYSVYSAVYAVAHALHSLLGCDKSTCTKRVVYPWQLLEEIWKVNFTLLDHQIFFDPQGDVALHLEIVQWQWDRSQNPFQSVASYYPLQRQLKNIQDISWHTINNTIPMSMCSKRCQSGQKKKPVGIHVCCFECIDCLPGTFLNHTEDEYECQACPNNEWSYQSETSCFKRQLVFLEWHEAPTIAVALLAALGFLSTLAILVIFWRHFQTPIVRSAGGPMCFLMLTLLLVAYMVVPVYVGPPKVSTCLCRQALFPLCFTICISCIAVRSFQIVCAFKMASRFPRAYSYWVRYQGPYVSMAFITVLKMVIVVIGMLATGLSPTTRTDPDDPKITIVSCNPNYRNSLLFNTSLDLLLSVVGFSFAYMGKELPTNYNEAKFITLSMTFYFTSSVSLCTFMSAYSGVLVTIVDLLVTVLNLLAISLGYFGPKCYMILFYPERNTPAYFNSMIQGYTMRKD
Test: Calcium mobilisation assay, TAS1R2-R838K subunit alone
Assay type: cell-based
Description: The coding sequences for TAS1R2 and TAS1R3 were commercially synthesised, and the human codon was optimised for expression in human cells. The coding sequences of human TAS1R2 and TAS1R3 were subcloned and inserted into the mammalian expression vectors pcDNA6/myc-HisA and pcDNA4/myc-HisA (Invitrogen; Thermo Fisher Scientific; Illkirch, France) between the EcoRI and NotI restriction sites, generating the plasmids pcDNA6-TAS1R2 and pcDNA4-TAS1R3, respectively. To increase protein expression in mammalian cells, an upstream start codon was used, which was a sequence called MAX, corresponding to the QBI SP163 element also described in pcDNA4-HisMax (Invitrogen; Thermo Fisher Scientific; Illkirch, France). To measure the expression level of the receptor by immunohistochemistry, we used the FLAG sequence ([…]) in the C-terminal position, which encodes the FLAG tag epitope. […]
The HEK293T cells were kindly provided by Jay P. Slack (Givaudan Flavors Corporation; Cincinnati, OH, USA). […] The fluorescence intensity was measured for 90 s (excitation 488 nm, emission 510 nm) in an automated fluorometric FlexStation®3 Multi-Mode microplate reader (Molecular Devices; San Jose, CA, USA). […] The Ca^2+ changes were expressed as fractional changes in fluorescent light intensity: ΔF/F = (F − F0)/F0, where F was the fluorescent light intensity at each point, and F0 was the value of emitted fluorescent light prior to stimulus application. To calculate dose–response relationships, the changes in fluorescence upon stimulus application were averaged, mock-subtracted and baseline-corrected. […] The half-maximal effective concentrations (EC50 values) and maximal signal amplitudes were calculated using SigmaPlot software (version 15.0) (Systat Software; San Jose, CA, USA).
For in vitro calcium mobilisation assay performed on hTAS1R2-SNPs, hTAS1R3-SNPs and mTAS1R3-I60T, 6 to 7 concentrations were tested for each sweet compound, plus buffer alone. All concentration–receptor combinations were measured in duplicate, and each experiment was repeated at least 4 times (8 wells/concentration). […]

## C=C(C)[C@@H]1CC=C(/C=N/O)CC1 [Perillartine, perillartine]
  EC50: 92.4 ± 19.7 µM
  R1 = Variant EC50/WT EC50: 1.0
Maximal signal amplitude
  Max ΔF/F0: 0.35 ± 0.03

Source: article PMC11945486, “TAS1R2/TAS1R3 Single-Nucleotide Polymorphisms Affect Sweet Taste Receptor Activation by Sweeteners: The SWEET Project” (Nutrients, 2025)
